Assay results from ChEMBL document CHEMBL5550087, “Development of tenofovir monobenzyl ester phosphonoamidate prodrugs with improved anti-hepatitis B virus activity and intrahepatic tenofovir enrichment” (Bioorg Med Chem, 2024).

Legend:
[1] = system: Hepatitis B virus; test: Antiviral activity against Hepatitis B virus infected in human HepG2.2.15 cells assessed as inhibition of viral DNA replication treated from day 2 to day 8 by real time fluorescence qPCR analysis; assay type: functional, organism-based
[2] = Cytotoxicity against human HepG2.2.15 cells assessed as reduction in cell viability treated from day 2 to day 8 by CellTiter-Blue reagent based fluorescence analysis; assay type: toxicity, HepG2 2.2.15; conditions: time 6 day
[3] = Stability of the compound in simulated gastric fluid at 10 uM incubated at 37 degC for upto 1440 mins by LC-MS/MS analysis; assay type: ADME; conditions: simulated gi fluid, 24 h
[4] = Stability of the compound in simulated intestinal fluid at 10 uM incubated at 37 degC for upto 1440 mins by LC-MS/MS analysis; assay type: ADME; conditions: simulated gi fluid, 24 h
[5] = Stability of the compound in human plasma at 2 uM incubated for upto 120 mins by LC-MS/MS analysis; assay type: ADME, cell-free; conditions: 2 h
[6] = Drug metabolism in human liver S9 fraction assessed as tenofovir metabolite formation at 1 uM incubated for upto 60 mins by LC-MS/MS analysis; assay type: ADME, subcellular; conditions: s9, 1 h
[7] = molecular target: Voltage-gated inwardly rectifying potassium channel KCNH2 (Homo sapiens, UniProt Q12809); test: Inhibition of hERG expressed in CHO cells assessed as inhibition of channel current measured at holding potential of -80 mV by whole cell patch clamp analysis; assay type: toxicity, cell-based
[8] = Mutagenicity in Salmonella typhimurium TA98 assessed as revertant colonies at 1.5 to 1000 ug/well incubated for 66.5 hrs in the dark by mini-Ames test; assay type: toxicity; conditions: salmonella enterica subsp. enterica serovar typhimurium, dose 1.5-1000 µg
[9] = Mutagenicity in Salmonella typhimurium TA98 assessed as revertant colonies at 1.5 to 1000 ug/well incubated for 66.5 hrs in the dark in presence of S9 fraction by mini-Ames test; assay type: toxicity, subcellular; conditions: salmonella enterica subsp. enterica serovar typhimurium, s9, 66.5 h, dose 1.5-1000 µg
[10] = Mutagenicity in Salmonella typhimurium TA100 assessed as revertant colonies at 1.5 to 1000 ug/well incubated for 66.5 hrs in the dark by mini-Ames test; assay type: toxicity; conditions: salmonella enterica subsp. enterica serovar typhimurium, dose 1.5-1000 µg
[11] = Mutagenicity in Salmonella typhimurium TA100 assessed as revertant colonies at 1.5 to 1000 ug/well incubated for 66.5 hrs in the dark in presence of S9 fraction by mini-Ames test; assay type: toxicity, subcellular; conditions: salmonella enterica subsp. enterica serovar typhimurium, s9, 66.5 h, dose 1.5-1000 µg
[12] = Drug metabolism in Sprague-Dawley rat assessed as terminal elimination half life of tenofovir metabolite at 5 mg/kg, iv measured for 24 hrs by LC-MS/MS analysis; assay type: ADME, organism-based; conditions: in vivo
[13] = Drug metabolism in Sprague-Dawley rat assessed as clearance of tenofovir metabolite at 5 mg/kg, iv measured for 24 hrs by LC-MS/MS analysis; assay type: ADME, organism-based; conditions: in vivo
[14] = Drug metabolism in Sprague-Dawley rat assessed as volume of distribution of tenofovir metabolite at 5 mg/kg, iv measured for 24 hrs by LC-MS/MS analysis; assay type: ADME, organism-based; conditions: in vivo
[15] = Drug metabolism in Sprague-Dawley rat assessed as MRT(0 to t) of tenofovir metabolite at 5 mg/kg, iv measured for 24 hrs by LC-MS/MS analysis; assay type: ADME, organism-based; conditions: in vivo
[16] = Drug metabolism in Sprague-Dawley rat assessed as terminal elimination half life of tenofovir metabolite at 25 mg/kg, ig measured for 24 hrs by LC-MS/MS analysis; assay type: ADME, organism-based; conditions: in vivo, po
[17] = Drug metabolism in Sprague-Dawley rat assessed as Tmax of tenofovir metabolite at 25 mg/kg, ig measured for 24 hrs by LC-MS/MS analysis; assay type: ADME, organism-based; conditions: in vivo, po
[18] = Drug metabolism in Sprague-Dawley rat assessed as Cmax of tenofovir metabolite at 25 mg/kg, ig measured for 24 hrs by LC-MS/MS analysis; assay type: ADME, organism-based; conditions: in vivo, po
[19] = Drug metabolism in Sprague-Dawley rat assessed as bioavailability of tenofovir metabolite at 25 mg/kg, ig measured for 24 hrs by LCMS/MS analysis; assay type: ADME, organism-based; conditions: in vivo, po
[20] = Drug metabolism in Sprague-Dawley rat plasma assessed as terminal elimination half life of tenofovir metabolite at 25 mg/kg, ig measured for 12 hrs by LC-MS/MS analysis; assay type: ADME, organism-based; conditions: in vivo, po
[21] = Drug metabolism in Sprague-Dawley rat liver assessed as terminal elimination half life of tenofovir metabolite at 25 mg/kg, ig measured for 12 hrs by LC-MS/MS analysis; assay type: ADME, organism-based; conditions: in vivo, po
[22] = Drug metabolism in Sprague-Dawley rat kidney assessed as terminal elimination half life of tenofovir metabolite at 25 mg/kg, ig measured for 12 hrs by LC-MS/MS analysis; assay type: ADME, organism-based; conditions: in vivo, po
[23] = Drug metabolism in Sprague-Dawley rat plasma assessed as Tmax of tenofovir metabolite at 25 mg/kg, ig measured for 12 hrs by LC-MS/MS analysis; assay type: ADME, organism-based; conditions: in vivo, po
[24] = Drug metabolism in Sprague-Dawley rat liver assessed as Tmax of tenofovir metabolite at 25 mg/kg, ig measured for 12 hrs by LC-MS/MS analysis; assay type: ADME, organism-based; conditions: in vivo, po
[25] = Drug metabolism in Sprague-Dawley rat kidney assessed as Tmax of tenofovir metabolite at 25 mg/kg, ig measured for 12 hrs by LC-MS/MS analysis; assay type: ADME, organism-based; conditions: in vivo, po
[26] = Drug metabolism in Sprague-Dawley rat plasma assessed as Cmax of tenofovir metabolite at 25 mg/kg, ig measured for 12 hrs by LC-MS/MS analysis; assay type: ADME, organism-based; conditions: in vivo, po
[27] = Drug metabolism in Sprague-Dawley rat liver assessed as Cmax of tenofovir metabolite at 25 mg/kg, ig measured for 12 hrs by LC-MS/MS analysis; assay type: ADME, organism-based; conditions: in vivo, po
[28] = Drug metabolism in Sprague-Dawley rat kidney assessed as Cmax of tenofovir metabolite at 25 mg/kg, ig measured for 12 hrs by LC-MS/MS analysis; assay type: ADME, organism-based; conditions: in vivo, po
[29] = Drug uptake in ICR mouse liver at 50 mg/kg, ig measured after 3 hrs by LC-MS/MS analysis; assay type: ADME, organism-based; conditions: po, read-out: Drug uptake
[30] = Plasma concentration in ICR mouse at 50 mg/kg, ig measured after 3 hrs by LC-MS/MS analysis; assay type: ADME, organism-based; conditions: po
[31] = Ratio of drug level in ICR mouse liver to plasma at 50 mg/kg, ig measured after 3 hrs by LC-MS/MS analysis; assay type: ADME, organism-based; conditions: liver and plasma, po
[32] = Drug metabolism in ICR mouse liver assessed as ratio of tenofovir level to parent compound level at 50 mg/kg, ig measured after 3 hrs by LC-MS/MS analysis; assay type: ADME, organism-based; conditions: in vivo, po
[33] = Drug metabolism in ICR mouse plasma assessed as ratio of tenofovir level to parent compound level at 50 mg/kg, ig measured after 3 hrs by LC-MS/MS analysis; assay type: ADME, organism-based; conditions: in vivo, po
[34] = Drug metabolism in ICR mouse liver assessed as tenofovir metabolite level at 50 mg/kg, ig measured after 3 hrs by LC-MS/MS analysis; assay type: ADME, organism-based; conditions: in vivo, po
[35] = Drug metabolism in ICR mouse plasma assessed as tenofovir metabolite level at 50 mg/kg, ig measured after 3 hrs by LC-MS/MS analysis; assay type: ADME, organism-based; conditions: in vivo, po
[36] = Drug metabolism in ICR mouse assessed as ratio of tenofovir metabolite level in liver to plasma at 50 mg/kg, ig measured after 3 hrs by LC-MS/MS analysis; assay type: ADME, organism-based; conditions: other tissue, po

Voltage-gated inwardly rectifying potassium channel KCNH2, sequence (Q12809 whole entry): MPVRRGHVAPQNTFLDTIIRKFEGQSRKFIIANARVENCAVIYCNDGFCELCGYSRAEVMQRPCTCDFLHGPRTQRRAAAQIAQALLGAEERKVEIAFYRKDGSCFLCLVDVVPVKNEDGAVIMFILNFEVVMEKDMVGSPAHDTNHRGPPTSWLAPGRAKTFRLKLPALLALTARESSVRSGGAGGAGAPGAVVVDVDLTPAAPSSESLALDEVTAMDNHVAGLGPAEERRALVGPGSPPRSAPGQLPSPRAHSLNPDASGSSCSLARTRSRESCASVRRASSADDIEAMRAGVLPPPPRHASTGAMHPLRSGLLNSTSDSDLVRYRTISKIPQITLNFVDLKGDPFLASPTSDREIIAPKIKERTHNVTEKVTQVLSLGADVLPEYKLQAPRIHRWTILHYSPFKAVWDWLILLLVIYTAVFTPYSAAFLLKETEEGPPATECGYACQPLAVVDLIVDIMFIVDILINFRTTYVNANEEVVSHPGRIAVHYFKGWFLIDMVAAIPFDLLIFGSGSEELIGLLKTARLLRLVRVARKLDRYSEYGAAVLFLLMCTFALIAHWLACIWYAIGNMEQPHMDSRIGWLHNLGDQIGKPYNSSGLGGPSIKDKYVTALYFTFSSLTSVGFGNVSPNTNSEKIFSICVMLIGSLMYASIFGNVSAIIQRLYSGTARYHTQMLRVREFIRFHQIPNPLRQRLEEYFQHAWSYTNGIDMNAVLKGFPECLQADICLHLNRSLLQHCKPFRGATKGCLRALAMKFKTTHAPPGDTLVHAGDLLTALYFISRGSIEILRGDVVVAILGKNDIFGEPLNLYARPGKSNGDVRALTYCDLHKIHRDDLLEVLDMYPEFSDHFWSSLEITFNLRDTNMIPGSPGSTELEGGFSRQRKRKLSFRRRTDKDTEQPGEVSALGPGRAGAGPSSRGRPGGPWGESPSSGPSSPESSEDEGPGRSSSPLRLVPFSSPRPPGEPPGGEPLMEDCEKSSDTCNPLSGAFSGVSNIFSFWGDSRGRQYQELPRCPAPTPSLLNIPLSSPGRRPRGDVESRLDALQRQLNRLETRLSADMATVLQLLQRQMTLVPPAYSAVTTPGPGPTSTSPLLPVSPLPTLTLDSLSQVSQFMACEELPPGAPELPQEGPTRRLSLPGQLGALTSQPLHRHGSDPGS

COC(=O)CNP(=O)(CO[C@H](C)Cn1cnc2c(N)ncnc21)OCc1ccccc1 (single isomer, unassigned; 2a)
EC50 [1]: 0.418 µM | CC50 at 144 h [2]: > 100 µM

CC(C)OC(=O)[C@H](C)NP(=O)(CO[C@H](C)Cn1cnc2c(N)ncnc21)OCc1ccccc1 (single isomer, unassigned; 3b)
EC50 [1]: 0.006 µM | CC50 at 144 h [2]: > 100 µM | Stability [3]: Stable | Stability [4]: Stable | Stability [5]: Stable | Drug metabolism [6]: Metabolite_Detected | IC50 [7]: > 30 µM | Activity [8]: Non-Toxic | Activity [9]: Non-Toxic | Activity [10]: Non-Toxic | Activity [11]: Non-Toxic | t1/2 [12]: 2 h | CL [13]: 435 mL/min/kg | Vd [14]: 67.4 L/kg | MRT(t) [15]: 0.489 h | t1/2 [16]: 2.84 h | Tmax [17]: 0.375 h | Cmax [18]: 143 ng/mL | F [19]: 31.5% | t1/2 [20]: 6.56 h | t1/2 [21]: 10.7 h | t1/2 [22]: 26.2 h | Tmax [23]: 0.25 h | Tmax [24]: 0.25 h | Tmax [25]: 0.25 h | Cmax [26]: 216 ng/mL | Cmax [27]: 10557 ng/mL | Cmax [28]: 4663 ng/mL

CC(C)OC(=O)[C@H](C)N[P@](=O)(CO[C@H](C)Cn1cnc2c(N)ncnc21)Oc1ccccc1 [TENOFOVIR ALAFENAMIDE]
EC50 [1]: 0.0178 µM | CC50 at 144 h [2]: > 100 µM | Drug metabolism [6]: Metabolite_Detected | IC50 [7]: > 10 µM | t1/2 [12]: 4.59 h | CL [13]: 42.8 mL/min/kg | Vd [14]: 16.1 L/kg | MRT(t) [15]: 1.67 h | t1/2 [16]: 5.46 h | Tmax [17]: 0.375 h | Cmax [18]: 1370 ng/mL | F [19]: 27.7% | t1/2 [20]: 4.44 h | t1/2 [21]: 6.2 h | t1/2 [22]: 5.2 h | Tmax [23]: 0.25 h | Tmax [24]: 0.25 h | Tmax [25]: 0.25 h | Cmax [26]: 4027 ng/mL | Cmax [27]: 29820 ng/mL | Cmax [28]: 16471 ng/mL

Cc1ccccc1COP(=O)(CO[C@H](C)Cn1cnc2c(N)ncnc21)N[C@@H](C)C(=O)OC(C)C (single isomer, unassigned; 5b)
EC50 [1]: 0.275 µM | CC50 at 144 h [2]: > 100 µM | IC50 [7]: > 10 µM

CC(C)OC(=O)CNP(=O)(CO[C@H](C)Cn1cnc2c(N)ncnc21)OCc1ccccc1 (single isomer, unassigned; 1a)
EC50 [1]: > 1 µM | CC50 at 144 h [2]: > 100 µM

CC(C)OC(=O)[C@H](C)NP(=O)(CO[C@H](C)Cn1cnc2c(N)ncnc21)OCc1ccccc1 (some centres not stated)
concentration at 3 h [29]: 375 nM | concentration at 3 h [30]: 104 nM | Kp at 3 h [31]: 3.61 | Ratio [32]: 166 | Ratio [33]: 0.72 | Drug metabolism [34]: 67.251 nmol/mL | Drug metabolism [35]: 0.075 nmol/mL | Ratio [36]: 896

CC(C)OC(=O)CNP(=O)(CO[C@H](C)Cn1cnc2c(N)ncnc21)OCc1ccccc1 (single isomer, unassigned; 1b)
EC50 [1]: 0.29 µM | CC50 at 144 h [2]: > 100 µM

CC(C)OC(=O)[C@H](C)NP(=O)(CO[C@H](C)Cn1cnc2c(N)ncnc21)OCc1ccccc1 (single isomer, unassigned; 3a)
EC50 [1]: 0.00339 µM | CC50 at 144 h [2]: > 100 µM | Stability [3]: Stable | Stability [4]: Stable | Stability [5]: Stable | Drug metabolism [6]: Metabolite_Detected | IC50 [7]: > 10 µM | Activity [8]: Non-Toxic | Activity [9]: Non-Toxic | Activity [10]: Non-Toxic | Activity [11]: Non-Toxic | t1/2 [12]: 2.89 h | CL [13]: 348 mL/min/kg | Vd [14]: 86.6 L/kg | MRT(t) [15]: 0.921 h | t1/2 [16]: 10.7 h | Tmax [17]: 0.147 h | Cmax [18]: 98.35 ng/mL | F [19]: 32.7% | t1/2 [20]: 6.58 h | t1/2 [21]: 6.77 h | t1/2 [22]: 322 h | Tmax [23]: 0.25 h | Tmax [24]: 0.25 h | Tmax [25]: 0.25 h | Cmax [26]: 279 ng/mL | Cmax [27]: 10589 ng/mL | Cmax [28]: 3234 ng/mL

Cc1ccccc1COP(=O)(CO[C@H](C)Cn1cnc2c(N)ncnc21)N[C@@H](C)C(=O)OC(C)C (single isomer, unassigned; 5a)
EC50 [1]: > 1 µM | CC50 at 144 h [2]: > 100 µM

C[C@H](Cn1cnc2c(N)ncnc21)OCP(=O)(NCC(=O)Oc1ccccc1)OCc1ccccc1 (single isomer, unassigned; 4a)
EC50 [1]: 0.214 µM | CC50 at 144 h [2]: > 100 µM

C[C@H](Cn1cnc2c(N)ncnc21)OCP(=O)(NCC(=O)Oc1ccccc1)OCc1ccccc1 (single isomer, unassigned; 4b)
EC50 [1]: 0.848 µM | CC50 at 144 h [2]: > 100 µM

COC(=O)CNP(=O)(CO[C@H](C)Cn1cnc2c(N)ncnc21)OCc1ccccc1 (single isomer, unassigned; 2b)
EC50 [1]: > 1 µM | CC50 at 144 h [2]: > 100 µM
